Reference: patent publication US20250082759A1, “COMPOSITIONS COMPRISING THERAPEUTIC NUCLEIC ACID AND TARGETED SAPONIN FOR THE TREATMENT OF MUSCLE-WASTING DISORDERS” (SAPREME TECHNOLOGIES B.V., priority 2021, published 2025)
Oligonucleotides are written 5' to 3', each unit as a sugar letter and its base; * is a phosphorothioate linkage, no mark a phosphodiester; rarer units and linkages stand in square brackets, end groups in braces. Plain capitals give the bases only. m = 2'-O-methyl

Legend:
dystrophin exon 51 = test: Exon 51 skip analysis in differentiated human myotubes from a non-DMD (healthy) donor (KM155); assay type: cell-based; conditions: for % exon skipping: 72 hrs
Description: Immortalized human myoblasts from non-DMD donors (KM155) and myoblasts from a DMD-affected donor (DM8036) were cultured in Skeletal Muscle Cell Growth Medium (PromoCell, Germany) with supplementary pack according to manufacturer's instructions, further supplemented with 15% fetal bovine serum (Gibco, United Kingdom), and 0.5% gentamicin (Sigma-Aldrich, USA). For differentiation, cells were seeded on a 0.5% gelatine-coated surface, and at ˜70-80% confluence, the proliferation medium was replaced by DMEM (Gibco) supplemented with 2% FBS (Gibco), 2% GlutaMAX, and 1% glucose (Sigma-Aldrich) and 0.5% gentamycin. Treatments were started after at least 3 days up to a maximum of 5 days of differentiation (based on the presence of differentiated myotubes).
RNA was isolated with the TRIsure Isolation Reagent (Bioline) and chloroform extraction; isopropanol precipitation of RNA from the aqueous phase was performed as known to someone skilled in the art. For cDNA synthesis, 1000 ng of total RNA was used and diluted in an appropriate amount of RNase-free water to yield 8 μl RNA dilution. The priming premixed contained 1 μl dNTP mix (10 mM each) and 1 μl specific reverse primer (for KM155, h53R 5′-[…]-3′ [SEQ ID NO: 5]; for DM8036, h55R 5′-[…]-3′ [SEQ ID NO: 6]). This mixture was heated for 5 min at 70° C., then chilled on ice for at least 1 min. A reaction mixture was prepared containing 0.5 μl rRNasin (Promega), 4.0 μl RT buffer, 1.0 μl Tetro RT (Bioline), and 4.5 μl RNase-free water, and was added to the chilled mixture to yield a total volume of 20 μl per reaction. The RT-PCR was run for 60 min at 42° C., then 5 min at 85° C., and chilled on ice. For skip analysis, a nested PCR approach was followed. To this end, in the first PCR, 3 μl cDNA were added to a mix of 2.5 μl 10× SuperTaq PCR buffer, 0.5 μl dNTP mix (10 mM each), 0.125 μl Taq DNA polymerase TAQ-RO (5 U/μl; Roche) 16.875 μl RNase-free water and 1 μl (10 pmol/μl) of each primer flanking the targeted exons were used: for KM155, h48F 5′-[…]-3′ [SEQ ID NO: 7] and h53R 5′-[…]-3′ [SEQ NO: ID 5]; for DM8036, h47F2 5′-[…]-3′ [SEQ ID NO: 8] and h54R 5′-[…]-3′ [SEQ ID NO: 9]. These samples were subjected to a PCR run of 5 min at 94° C., then 25 cycles with 40 sec at 94° C., 40 sec at 60° C., 180 sec at 72° C., after which for 7 min at 72° C. For the second PCR, 1.5 μl PCR1 sample were added to a mix of 5 μl 10× SuperTaq PCR buffer, 1 μl dNTP mix (10 mM each), 0.25 μl Taq DNA polymerase TAQ-RO (5 U/μl; Roche), 38.25 μl RNase-free water and 2 μl (10 pmol/μl) of each primer flanking the targeted exons were used: for KM155, h49F 5′-[…]-3′ [SEQ ID NO: 10] and h52R2 5′-[…]-3′ [SEQ ID NO: 11]; for DM8036, h47F 5′-[…]-3′ [SEQ ID NO: 12] and h53R 5′-[…]-3′ [SEQ ID NO: 13]. These samples were subjected to a PCR run of 5 min at 94° C., then 32 cycles with 40 sec at 94° C., 40 sec at 60° C., 60 sec at 72° C., after which for 7 min at 72° C. Exon skipping levels were quantified with the Femto Pulse System using the Ultra Sensitivity NGS Kit (Agilent), according to the manufacturer's instructions. Alternatively, the specific PCR fragments were analyzed using Bioanalyzer 2100 with DNA1000 chip (lab-on-a-chip; Agilent), or separated on 2% agarose gels run at 120 V. Gels were imaged and band intensities were quantified using ImageJ. The expected non-skipped product has a size of 408 bp (KM155) and 475 bp (DM8036), and the skip product of 175 bp (KM155) or 242 bp (DM8036), respectively.
Immortalized human myoblasts from non-DMD donors (KM155) were cultured as described above in the Methods (as performed in Examples 1-5).
RNA was isolated with the TRIsure Isolation Reagent (Bioline) and chloroform extraction; isopropanol precipitation of RNA from the aqueous phase was performed as known to someone skilled in the art. […]

dystrophin exon 23 = test: Exon 23 skip analysis in differentiated murine C2C12 myotubes; assay type: cell-based, mouse
Description: Murine myoblast cell line C2C12 was maintained in 10% FBS DMEM medium+Pen/Strep and plated at 240,000 cells per well (cpw) in 24-well plates or 40,000 cpw in 96-well plates (wp) in maintenance medium (10% FBS in DMEM medium+Pen/Strep) and incubated at 37° C. with 5% CO2. Twenty-four hours after seeding, cells were switched to differentiation media (2% horse serum in DMEM) and incubated for 3 days before refreshing the medium. After another 24 hours, medium was refreshed again and compounds were added and incubated for 48 hours. Differentiation medium was then refreshed (without compounds), and cells were incubated for another 24 hours. At 72 hours total post treatment, cells in the 24-wp were harvested for exon skip analysis and the cell viability was assessed on the 96-wp.
For analysis of skip from murine cell lines, cells were harvested and RNA was isolated using 0.5 ml TRIzol™ Reagent (Thermo Scientific) per sample, according to the manufacturer's instruction. For analysis of tissue, 30-50 mg frozen tissue was first cut into smaller pieces and mRNA was isolated using TRIzol™ Reagent (Thermo Scientific) and a TissueLyser LT (Qiagen) according to the manufacturer's instruction. For cDNA synthesis per sample, to 0.5 μg RNA in 5.0 μl, 10.0 μl ddH2O, 4 μl 5× iScript™ Reaction Mix and 1.0 μl iScript™ Reverse Transcriptase (BioRad) were added to yield a total volume of 20.0 μl per reaction. The RT-PCR was run for 5 min at 25° C., 60 min at 46° C., and 2 min at 95° C. For skip analysis, SapphireAmp™ Fast PCR Master Mix (TakaraBio) was used according to the manufacturer's instructions. To this end, 9.7 μl RNAse free water, 12.5 μl of 2× Master Mix, 0.4 μl of 10 μM FW primer 5′-[…]-3′ (SEQ ID NO: 14) and 0.4 μl of […] RV primer 5′-[…]-3′ (SEQ ID NO: 15) were added to a PCR tube, mixed, after which 2 μl cDNA (50 ng) was added, to yield a total volume of 25 μl. These samples were subjected to a PCR run of 1 min at 94° C., 35 cycles of 5 sec at 98° C., 5 sec at 55° C., 5 sec at 72° C., followed by 1 min at 72° C. Samples were mixed with 2 μl 6× loading buffer, then 16 μl were loaded onto an 2% agarose gel and ran for 60-90 min at 80 V. Gels were imaged and band intensities were quantified with a ChemiDoc™ XRS+System and Image Lab™ Software (BioRad). The expected non-skipped product has a size of 788 bp, and the skip product of 575 bp, respectively.
Murine myoblast cell line C2C12 was maintained in 10% FBS DMEM medium+Pen/Strep and plated at 240,000 cells per well (cpw) in 24-well plates, or at 40,000 cpw in 96-well plates (wp), in maintenance medium (10% FBS in DMEM medium+Pen/Strep) and incubated at 37° C. with 5% CO2. Twenty-four hours after seeding, cells were switched to differentiation media (2% horse serum in DMEM) and incubated for 3 days before refreshing the medium. After another 24 hours, medium was refreshed again and compounds were added and incubated for 48 hours. At 48 hours total post treatment, cells in the 24-wp were harvested for exon skip analysis and the cell viability was assessed on the 96-wp.
Performed as described above in the Methods (as performed in Examples 1-5).

DMD-ASO: 2′O-methyl-phosporothioate antisense oligonucleotide 5′-UCAAGGAAGAUGGCAUUUCU-3′ [SEQ ID NO: 1]; exon 51 skipping; same sequence and chemistry as drisapersen (antisense mU*mC*mA*mA*mG*mG*mA*mA*mG*mA*mU*mG*mG*mC*mA*mU*mU*mU*mC*mU; further chemistry not fully specified)
improvement in potency with vs without SO1861-EMCH or SO1861-SC-Mal co-administration (dystrophin exon 51): one to two orders of magnitude lower
% exon skipping (dystrophin exon 51; 0.08 μM DMD oligo alone, Lab-on-a-chip): 0%
% exon skipping (dystrophin exon 51; 0.31 μM DMD oligo alone, Lab-on-a-chip): 0%
% exon skipping (dystrophin exon 51; 1.25 μM DMD oligo alone, Lab-on-a-chip): 0%
% exon skipping (dystrophin exon 51; 5 μM DMD oligo alone, Lab-on-a-chip): 1%

DMD-PMO: PMO 5′-CTCCAACATCAAGGAAGATGGCATTTCTAG-3′ [SEQ ID NO: 2]; exon 51 skipping; same sequence but not 5′-modifications as eteplirsen (all phosphorodiamidate morpholino (PMO))
improvement in potency with vs without SO1861-EMCH or SO1861-SC-Mal co-administration (dystrophin exon 51): one to two orders of magnitude lower
% exon skipping (dystrophin exon 51; 0.08 μM DMD oligo alone, Femto): 0%
% exon skipping (dystrophin exon 51; 0.31 μM DMD oligo alone, Femto): 0%
% exon skipping (dystrophin exon 51; 1.25 μM DMD oligo alone, Femto): 0%
% exon skipping (dystrophin exon 51; 5 μM DMD oligo alone, Femto): 0%
% exon skipping (dystrophin exon 51; 20 μM DMD oligo alone, Femto): 4%

IGF-1-SO1861+500 nM M23D: IGF-1-SO1861 (DAR2.7) co-administered with 500 nM M23D
exon 23 skip (dystrophin exon 23; 133 nM IGF-1-SO1861 + 500 nM M23D): 8%
exon 23 skip (dystrophin exon 23; 667 nM IGF-1-SO1861 + 500 nM M23D): 11%
exon 23 skip (dystrophin exon 23; 3333 nM IGF-1-SO1861 + 500 nM M23D): 19%

M23D: PMO 5′-GGCCAAACCTCGGCTTACCTGAAAT-3′ [SEQ ID NO: 3] that induces exon 23 skipping of mouse dystrophin (all phosphorodiamidate morpholino (PMO))
exon 23 skip (dystrophin exon 23; 500 nM M23D alone (0 nM conjugate)): 5%
exon 23 skip activity (dystrophin exon 23; 500 nM M23D alone, 48 h): no exon skip activity
